From the supplement of paper PMC10307832

What was measured:
Assay in all cases: relative viability (nuclei count vs DMSO), 5 days (fraction); higher = more cells survive
[1] = tested on: EPLC-272H
How it was run: (§1)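 Five library-drug doses in √10 steps were combined with a fixed anchor-drug dose, or a single drug was given alone, by pin tool to lung cancer cell lines in 1536-well plates the day after seeding. Nuclei were stained and counted after 5 days. Relative viability is the nuclei count in treated wells over that in vehicle wells, taken as the median of duplicate plates.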

[2] = tested on: H3255
How it was run: as §1

[3] = tested on: HARA
How it was run: as §1

[4] = tested on: LC-2-ad
How it was run: as §1

[5] = tested on: LOU-NH91
How it was run: as §1

[6] = tested on: NCI-H1650
How it was run: as §1

[7] = tested on: NCI-H1651
How it was run: as §1

[8] = tested on: NCI-H1975
How it was run: as §1

[9] = tested on: NCI-H2009
How it was run: as §1

[10] = tested on: NCI-H2023
How it was run: as §1

[11] = tested on: NCI-H2085
How it was run: as §1

[12] = tested on: NCI-H2087; details: first compound 0.001 µM
How it was run: as §1

`Cc1cn(-c2cc(NC(=O)c3ccc(C)c(Nc4nccc(-c5cccnc5)n4)c3)cc(C(F)(F)F)c2)cn1` [Nilotinib] + CCNC(=O)c1noc(-c2cc(C(C)C)c(O)cc2O)c1-c1ccc(CN2CCOCC2)cc1 [Luminespib] (partner 0.01 µM) was tested, and the relative viability ([1]; first compound 0.001 µM) was 0.134, the relative viability ([1]; first compound 0.003162 µM) was 0.205 and the relative viability ([1]; first compound 0.01 µM) was 0.277. The relative viability ([1]; first compound 0.03162 µM) was 0.265, the relative viability ([1]; first compound 0.1 µM) was 0.175 and the relative viability ([2]; first compound 0.001 µM) was 0.9. The relative viability ([2]; first compound 0.003162 µM) was 0.733, the relative viability ([2]; first compound 0.03162 µM) was 0.922 and the relative viability ([2]; first compound 0.1 µM) was 0.325. It also gave a relative viability ([3]; first compound 0.001 µM) of 0.569, a relative viability ([3]; first compound 0.003162 µM) of 1.24 and a relative viability ([3]; first compound 0.01 µM) of 1.14. It also gave a relative viability ([3]; first compound 0.03162 µM) of 0.842, a relative viability ([3]; first compound 0.1 µM) of 0.482 and a relative viability ([4]; first compound 0.001 µM) of 0.85. It also gave a relative viability ([4]; first compound 0.003162 µM) of 1.15, a relative viability ([4]; first compound 0.01 µM) of 1.21 and a relative viability ([4]; first compound 0.03162 µM) of 0.947. The relative viability ([4]; first compound 0.1 µM) was 0.8, the relative viability ([5]; first compound 0.001 µM) was 0.318 and the relative viability ([5]; first compound 0.003162 µM) was 0.308. The relative viability ([5]; first compound 0.01 µM) was 0.346, the relative viability ([5]; first compound 0.03162 µM) was 0.276 and the relative viability ([5]; first compound 0.1 µM) was 0.321. It also gave a relative viability ([6]; first compound 0.001 µM) of 0.208, a relative viability ([6]; first compound 0.003162 µM) of 0.203 and a relative viability ([6]; first compound 0.01 µM) of 0.197. The relative viability ([6]; first compound 0.03162 µM) was 0.221, the relative viability ([6]; first compound 0.1 µM) was 0.192 and the relative viability ([7]; first compound 0.001 µM) was 0.78. The relative viability ([7]; first compound 0.003162 µM) was 0.912, the relative viability ([7]; first compound 0.01 µM) was 0.902 and the relative viability ([7]; first compound 0.03162 µM) was 0.711. It also gave a relative viability ([7]; first compound 0.1 µM) of 0.753, a relative viability ([8]; first compound 0.001 µM) of 0.212 and a relative viability ([8]; first compound 0.003162 µM) of 0.143. The relative viability ([8]; first compound 0.01 µM) was 0.171, the relative viability ([8]; first compound 0.03162 µM) was 0.205 and the relative viability ([8]; first compound 0.1 µM) was 0.138. For the same compound, the relative viability ([9]; first compound 0.001 µM) was 0.886, the relative viability ([9]; first compound 0.003162 µM) was 1.14 and the relative viability ([9]; first compound 0.01 µM) was 1.16. It also gave a relative viability ([9]; first compound 0.03162 µM) of 0.955, a relative viability ([9]; first compound 0.1 µM) of 1.12 and a relative viability ([10]; first compound 0.001 µM) of 0.854. It also gave a relative viability ([10]; first compound 0.003162 µM) of 0.89, a relative viability ([10]; first compound 0.01 µM) of 0.99 and a relative viability ([10]; first compound 0.03162 µM) of 1.07. For the same compound, the relative viability ([10]; first compound 0.1 µM) was 0.38, the relative viability ([11]; first compound 0.001 µM) was 0.392 and the relative viability ([11]; first compound 0.003162 µM) was 0.46. The relative viability ([11]; first compound 0.01 µM) was 0.427, the relative viability ([11]; first compound 0.03162 µM) was 0.375 and the relative viability ([11]; first compound 0.1 µM) was 0.382. It also gave a relative viability [12] of 0.162.
